From patent US9790230B2 (Hoffmann-La Roche Inc., priority 2015, dated 2017)
pKi: −log10 of the molar value. Read-outs that look alike come from different tables or passages of the source.

Tests used:
rat TAAR1 = rat TAAR1 (Rattus norvegicus (Rat), UniProt Q923Y9); assay: Radioligand binding assay on rat TAAR1;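 also: membranes from HEK293 cells stably transfected with rat TAAR1, tritiated TAAR1 radioligand, 1 h incubation at 4 °C, nonspecific binding determined with excess unlabeled ligand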
Description: Membrane Preparation and Radioligand Binding.
HEK-293 cells stably expressing rat TAAR1 were maintained at 37° C. and 5% CO2 in DMEM high glucose medium, containing fetal calf serum (10%, heat inactivated for 30 min at 56° C.), penicillin/streptomycin (1%), and 375 μg/ml geneticin (Gibco). Cells were released from culture flasks using trypsin/EDTA, harvested, washed twice with ice-cold PBS (without Ca^2+ and Mg^2+), pelleted at 1'000 rpm for 5 min at 4° C., frozen and stored at −80° C. Frozen pellets were suspended in 20 ml HEPES-NaOH (20 mM, pH 7.4) containing 10 mM EDTA and homogenized with a Polytron (PT 6000, Kinematica) at 14′000 rpm for 20 s. The homogenate was centrifuged at 48'000×g for 30 min at 4° C. Subsequently, the supernatant was removed and discarded, and the pellet resuspended in 20 ml HEPES-NaOH (20 mM, pH 7.4) containing 0.1 mM EDTA using the Polytron (20 s at 14'000 rpm). This procedure was repeated and the final pellet resuspended in HEPES-NaOH containing 0.1 mM EDTA and homogenized using the Polytron. Typically, aliquots of 2 ml membrane portions were stored at −80° C. With each new membrane batch the dissociation constant (Kd) was determined via a saturation curve. […] Nonspecific binding was defined as the amount of 3 [H]—(S)-4-[(ethyl-phenyl-amino)-methyl]-4,5-dihydro-oxazol-2-ylamine bound in the presence of 10 M unlabeled ligand. All compounds were tested at a broad range of concentrations (10 pM to 10 μM) in duplicates. […] The 96 deep well plates were incubated for 1 hr at 4° C. Incubations were terminated by rapid filtration through Unifilter-96 plates (Packard Instrument Company) and glass filters GF/C (Perkin Elmer) presoaked for 1 hr in polyethylenimine (0.3%) and washed 3 times with 1 ml of cold binding buffer. After addition of 45 μl of Microscint 40 (PerkinElmer) the Unifilter-96 plate was sealed and after 1 hr the radioactivity counted using a TopCount Microplate Scintillation Counter (Packard Instrument Company).

mouse TAAR1 = mouse TAAR1 (Mus musculus (Mouse), UniProt Q923Y8); assay: Radioligand binding assay on mouse TAAR1
Sequence of mouse TAAR1 (Q923Y8 whole entry): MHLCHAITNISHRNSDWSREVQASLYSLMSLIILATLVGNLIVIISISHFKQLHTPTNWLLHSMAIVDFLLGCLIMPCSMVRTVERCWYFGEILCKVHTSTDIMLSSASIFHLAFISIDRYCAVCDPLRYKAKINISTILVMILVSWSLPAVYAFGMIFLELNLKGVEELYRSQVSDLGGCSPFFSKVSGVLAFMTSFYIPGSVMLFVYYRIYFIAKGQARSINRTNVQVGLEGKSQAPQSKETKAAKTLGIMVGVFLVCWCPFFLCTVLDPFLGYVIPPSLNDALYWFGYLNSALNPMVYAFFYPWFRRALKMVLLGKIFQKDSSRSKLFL

Sequence of rat TAAR1 (Q923Y9 whole entry): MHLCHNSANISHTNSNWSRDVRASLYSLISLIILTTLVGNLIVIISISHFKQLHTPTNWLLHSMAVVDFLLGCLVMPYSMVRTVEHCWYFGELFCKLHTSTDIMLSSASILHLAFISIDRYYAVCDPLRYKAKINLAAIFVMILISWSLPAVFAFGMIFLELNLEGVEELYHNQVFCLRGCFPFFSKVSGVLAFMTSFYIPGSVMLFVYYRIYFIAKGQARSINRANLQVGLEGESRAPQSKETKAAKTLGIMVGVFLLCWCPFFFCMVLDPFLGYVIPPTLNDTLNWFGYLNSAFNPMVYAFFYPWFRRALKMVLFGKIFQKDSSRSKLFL

Structure (SMILES) | pKi (rat TAAR1) | pKi (mouse TAAR1) | Ki (rat TAAR1; read-out: Ki (μM) rat, rat TAAR1, HEK-293 membranes, second value of cell mouse/rat) | Ki (mouse TAAR1; read-out: Ki (μM) mouse, mouse TAAR1, HEK-293 membranes, first value of cell mouse/rat)
O=C(CCC(F)(F)F)Nc1ccc([C@@H]2O[C@H]3CN[C@@H]2C3)cc1 [Example 91, 4,4,4-Trifluoro-N-[4-[(1R,3S,4R)-2-oxa-5-azabicyclo[2.2.1]heptan-3-yl]phenyl]butanamide] | < 5.84 | 7.51 | – | –
CCOc1ccc(C(=O)Nc2ccc([C@H]3O[C@@H]4CN[C@H]3C4)cc2)cc1 [Example 17, 4-Ethoxy-N-[4-[(1S,3R,4S)-2-oxa-5-azabicyclo[2.2.1]heptan-3-yl]phenyl]benzamide] | 6.16 | 8.19 | – | –
CC(C)c1n[nH]c(C(=O)Nc2ccc([C@@H]3O[C@H]4CN[C@@H]3C4)cc2)c1Cl [Example 102, 4-Chloro-3-isopropyl-N-[4-[(1R,3S,4R)-2-oxa-5-azabicyclo[2.2.1]heptan-3-yl]phenyl]-11H-pyrazole-5-carboxamide] | – | – | 0.0142 µM | 0.0089 µM
FC(F)(F)Oc1ccc(CNc2ccc([C@H]3O[C@@H]4CN[C@H]3C4)cc2)cc1 [Example 52, 4-[(1S,3R,4S)-2-Oxa-5-azabicyclo[2.2.1]heptan-3-yl]-N-[[4-(trifluoromethoxy)phenyl]methyl]aniline] | 6.71 | 8.37 | – | –
CC(C)n1nc(OCC(F)(F)F)cc1C(=O)Nc1ccc([C@@H]2O[C@H]3CN[C@@H]2C3)cc1 [Example 89, 2-Isopropyl-N-[4-[(1R,3S,4R)-2-oxa-5-azabicyclo[2.2.1]heptan-3-yl]phenyl]-5-(2,2,2-trifluoroethoxy)pyrazole-3-carboxamide] | 8.59 | 7.55 | – | –
CCc1ncc(C(=O)Nc2ccc([C@@H]3O[C@H]4CN[C@@H]3C4)cc2)cn1 [Example 74, 2-Ethyl-N-[4-[(1R,3S,4R)-2-oxa-5-azabicyclo[2.2.1]heptan-3-yl]phenyl]pyrimidine-5-carboxamide] | 6.72 | 6.96 | – | –
O=C(Nc1ccc(C(F)(F)F)cc1)c1ccc([C@H]2O[C@@H]3CN[C@H]2C3)cc1 [Example 59, 4-[(1S,3R,4S)-2-Oxa-5-azabicyclo[2.2.1]heptan-3-yl]-N-[4-(trifluoromethyl)phenyl]benzamide] | 5.99 | 8.66 | – | –
FC(F)(F)c1nccc(Nc2ccc([C@H]3O[C@@H]4CN[C@H]3C4)cc2)n1 [Example 21, N-[4-[(1S,3R,4S)-2-Oxa-5-azabicyclo[2.2.1]heptan-3-yl]phenyl]-2-(trifluoromethyl)pyrimidin-4-amine] | 6.20 | 7.71 | – | –
CCOc1n[nH]c(C(=O)Nc2ccc([C@@H]3O[C@H]4CN[C@@H]3C4)cc2)c1Cl [Example 98, 4-Chloro-3-ethoxy-N-[4-[(1R,3S,4R)-2-oxa-5-azabicyclo[2.2.1]heptan-3-yl]phenyl]-1H-pyrazole-5-carboxamide] | 7.13 | 8.17 | – | –
O=C(Nc1cccc([C@@H]2O[C@H]3CN[C@@H]2C3)c1)c1cccc(Cl)c1 [Example 1, 3-Chloro-N-[3-[(1R,3S,4R)-2-oxa-5-azabicyclo[2.2.1]heptan-3-yl]phenyl]benzamide] | 6.88 | 5.52 | – | –
CCCc1n[nH]c(C(=O)Nc2ccc([C@H]3O[C@@H]4CN[C@H]3C4)cc2)c1Cl [Example 49, 4-Chloro-N-[4-[(1S,3R,4S)-2-oxa-5-azabicyclo[2.2.1]heptan-3-yl]phenyl]-3-propyl-1H-pyrazole-5-carboxamide] | 7.43 | 8.36 | – | –
O=C(NCc1ccc(Cl)cc1)c1ccc([C@@H]2O[C@H]3CN[C@@H]2C3)cc1 [Example 97, N-[(4-Chlorophenyl)methyl]-4-[(1R,3S,4R)-2-oxa-5-azabicyclo[2.2.1]heptan-3-yl]benzamide] | < 5.84 | 7.29 | – | –
CC(C)c1cc(C(=O)Nc2ccc([C@@H]3O[C@H]4CN[C@@H]3C4)cc2)[nH]n1 [Example 75, 3-Isopropyl-N-[4-[(1R,3S,4R)-2-oxa-5-azabicyclo[2.2.1]heptan-3-yl]phenyl]-1H-pyrazole-5-carboxamide] | 6.62 | 8.00 | – | –
O=C(Nc1ccc(Cl)cc1)c1ccc([C@H]2O[C@@H]3CN[C@H]2C3)cc1 [Example 55] | 7.91 | 9.15 | – | –
CCOc1ccc(NC(=O)c2ccc([C@H]3O[C@@H]4CN[C@H]3C4)cc2)cc1 [Example 58, N-(4-Ethoxyphenyl)-4-[(1S,3R,4S)-2-oxa-5-azabicyclo[2.2.1]heptan-3-yl]benzamide] | < 5.00 | 8.89 | – | –
O=C(Nc1ccc([C@H]2O[C@@H]3CN[C@H]2C3)cc1)c1ccc(C(F)(F)F)cn1 [Example 36, N-[4-[(1S,3R,4S)-2-Oxa-5-azabicyclo[2.2.1]heptan-3-yl]phenyl]-5-(trifluoromethyl)pyridine-2-carboxamide] | 5.89 | 7.49 | – | –
CCOc1ccc(C(=O)Nc2ccc([C@@H]3O[C@H]4CN[C@@H]3C4)cc2)cn1 [Example 13, 6-Ethoxy-N-[4-[(1R,3S,4R)-2-oxa-5-azabicyclo[2.2.1]heptan-3-yl]phenyl]pyridine-3-carboxamide] | 3.46 | 8.20 | – | –
O=C(Nc1ccc([C@@H]2O[C@H]3CN[C@@H]2C3)cc1)c1cnc(C2CC2)nc1 [Example 29, 2-Cyclopropyl-N-[4-[(1R,3S,4R)-2-oxa-5-azabicyclo[2.2.1]heptan-3-yl]phenyl]pyrimidine-5-carboxamide] | 7.36 | 7.50 | – | –
FC(F)(F)c1ccc(Nc2ccc([C@@H]3O[C@H]4CN[C@@H]3C4)cc2)nc1 [Example 11, N-[4-[(1R,3S,4R)-2-Oxa-5-azabicyclo[2.2.1]heptan-3-yl]phenyl]-5-(trifluoromethyl)pyridin-2-amine] | 7.82 | 8.41 | – | –
FC(F)(F)COc1ccnc(Nc2ccc([C@H]3O[C@@H]4CN[C@H]3C4)cc2)n1 [Example 79, N-[4-[(1S,3R,4S)-2-Oxa-5-azabicyclo[2.2.1]heptan-3-yl]phenyl]-4-(2,2,2-trifluoroethoxy)pyrimidin-2-amine] | 7.08 | 8.22 | – | –
O=C(COCCC(F)(F)F)Nc1ccc([C@H]2O[C@@H]3CN[C@H]2C3)cc1 [Example 70, N-[4-[(1S,3R,4S)-2-Oxa-5-azabicyclo[2.2.1]heptan-3-yl]phenyl]-2-(3,3,3-trifluoropropoxy)acetamide] | 6.29 | 8.03 | – | –
FC(F)(F)c1ccc(Nc2ccc([C@H]3O[C@@H]4CN[C@H]3C4)cc2)nc1 [Example 19, N-[4-[(1S,3R,4S)-2-Oxa-5-azabicyclo[2.2.1]heptan-3-yl]phenyl]-5-(trifluoromethyl)pyridin-2-amine] | 7.19 | 8.15 | – | –
FC(F)(F)c1cnc(Nc2ccc([C@H]3O[C@@H]4CN[C@H]3C4)cc2)nc1 [Example 23, N-[4-[(1S,3R,4S)-2-Oxa-5-azabicyclo[2.2.1]heptan-3-yl]phenyl]-5-(trifluoromethyl)pyrimidin-2-amine] | 6.83 | 7.80 | – | –
O=C(Nc1ccc(Cl)nc1)c1ccc([C@H]2O[C@@H]3CN[C@H]2C3)cc1 [Example 60, N-(6-Chloro-3-pyridyl)-4-[(1S,3R,4S)-2-oxa-5-azabicyclo[2.2.1]heptan-3-yl]benzamide] | 5.27 | 8.48 | – | –
O=C(COCC(F)(F)F)Nc1ccc([C@H]2O[C@@H]3CN[C@H]2C3)cc1 [Example 66, N-[4-[(1S,3R,4S)-2-Oxa-5-azabicyclo[2.2.1]heptan-3-yl]phenyl]-2-(2,2,2-trifluoroethoxy)acetamide] | 5.40 | 7.91 | – | –
